The values that follow come from US20050009094A1 (priority 2001, published 2005).

The subject of assay [1] is PrP^Sc exposed neurons. As to conditions: cited from earlier work.
The subject of assay [2] is 14-3-3 gene expression. Put plainly: Expression of 14-3-3 gene in G. cydonium after exposition to PCB118 (Northern and Western Blotting). The format is in vivo, Geodia cydonium. The settings on record: 2 μg PCB 118/g wet weight, incubation 0.5 to 6 days. The text has this: The analyses were accomplished by means of Northern Blotting [14-3-3 probe] (A) or Western Blotting [14-3-3 antibody] (B).
The employed method was PCR cloning.
The detection of expression of the 14-3-3 proteins on the protein level is accomplished by using antibodies. To this aim, one can either employ commercial antibodies (e.g. from the Calbiochem/Oncogene company) or antibodies raised against the recombinant invertebrate-14-3-3 protein from Geodia cydonium. […] The signals can again be quantified by using the chemiluminescence method. The tissue extracts can e.g. be prepared by homogenisation in a phosphate buffer containing 1 mM of EDTA and 1 mM of phenylmethylsulfonyl fluoride.
The 14-3-3-cDNA from the sea sponge Geodia cydonium was used as a gene probe for the detection of expression of the 14-3-3 proteins on the mRNA-level and the respective antibodies were used for determining the amount of protein. In the accomplished keeping experiments, PCB 118 was used as the model PCB.
1 ml of PCB118 (0.1 mg/ml in corn oil) were injected in 40 g sponge tissue. The samples were incubated in sea water for up to 6 days in 20 l aquariums at 17° C. with continuous aeration; the water was exchanged one time at day 2. Aliquot portions of the tissue (each about 200 mg) were withdrawn at the time zero or after an incubation period of 0.5; 1; 3; 5 and 6 days. […]
(In western blotting, separated proteins are transferred to a membrane and probed.)

Consider `CCOC(=O)Nc1ccc(NCc2ccc(F)cc2)nc1N` [Flupirtin], for which, in assay [1], the “effect counteracting the neurotoxic peptide PrP106-126” value is recorded as “cytoprotective effect”, the “effect on PrP^Sc exposed neurons” value is “protective effect” and the “extent of apoptosis caused by PrP106-126” value is reported as “reduces”.

As to `CC12CC3CC(C)(C1)CC(N)(C3)C2` [Memantin], the “effect on PrP^Sc exposed neurons” value in assay [1] is “protective effect”.

As to `Clc1ccc(-c2cc(Cl)c(Cl)cc2Cl)cc1Cl` [PCB118], the “expression of the 14-3-3 gene (mRNA and protein)” value in assay [2] is listed as “very high values”.
